Key:
tps1Δ cells = test: Growth rescue of tps1Δ strain on glucose (growth curves, 2% galactose medium); format: cell-based, S. cerevisiae; conditions: 100 μM compound, 2.5 mM glucose
Method: Growth curves were made by measuring OD595 in a 96-well plate using the Multiskan™ FC Microplate Photometer (Thermo Fisher Scientific). Typically, for tps1Δ rescue experiments (FIG. 2b-e; FIG. 4a), cells were (pre)grown in Complete Synthetic medium containing 2% galactose.
Compounds were always added 10 min prior to glucose addition to ensure maximal interaction between the cells and compounds. Cells originating from the preculture were harvested, washed in medium without sugar, after which they were resuspended to an OD of 0.1 in 200 μL of the appropriate medium. At least three technical replicates were included per condition. OD595 was measured at 30° C. every 30 min with a 10-min shaking interval.

[1] = tested on: A549 lung adenocarcinoma cells; test: A549 cell proliferation / growth inhibition; format: cell-based, human; conditions: for Selected from primary screen for growth inhibition of A549 cells at 50 μM: 50 μM compound, 1 mM glucose; for Selected for having an IC50 ratio (10 mM glucose: 1 mM glucose) of A549 growth higher than WBC-A: IC50 on 10 mM vs 1 mM glucose, compared with WBC-A
Method: The analog library (n=203) was screened for inhibition of growth of A549 cells on RPMI medium supplemented with 1 mM glucose. DMSO (green bar) and WBC-A (orange bar) served as negative and positive control, respectively. In addition, the reference glucose transport inhibitors STF-31, Fasentin, BAY-876, WZB-117 and Cytochalasin B were included and indicated in red. Compounds were added at 50 μM concentration. Number of cells was determined by counting nuclei stained by Hoechst after three days of growth.
For both adherent A549 and MCF10Δ H-RAS^V12 cell lines, growth curves were established using the IncuCyte® ZOOM technology. By collecting phase contrast images, the IncuCyte® software provides a calculated confluency percentage from which growth curves can be deducted.
Cells were seeded at a density of 1000-1500 cells/well in a Nunc-Edge™ 96-well plate (Thermo Fisher Scientific) and growth was typically measured over 3 to 5 days. For the measurement of apoptosis induction using the MCF10Δ H-RAS^V12 cell line, the IncuCyte® Caspase-3/7 green dye was added to the medium in the recommended concentration at the beginning of the growth curve experiment. Apoptosis was detected by taking fluorescent images by excitation at 488 nm followed by IncuCyte® software analysis. Cell growth of the KMS-12-PE multiple myeloma cell line, which grows in suspension, was measured by manual cell counting. Cells were initially seeded at a density of 10^4 cells/well and incubated for 4 days after which the cell number was counted. For all cell lines, the same medium used for pregrowth was also used for the growth curve experiment, albeit with different glucose concentrations depending on the experimental design. With compound administration, the final concentration of DMSO never exceeded 0.1%. Typically, at least four technical repeats were included per condition.

SMILES | Rescue of the tps1Δ strain on 2.5 mM glucose at 100 μM (tps1Δ cells) | Selected from primary screen for growth inhibition of A549 cells at 50 μM [1] | Selected for having an IC50 ratio (10 mM glucose: 1 mM glucose) of A549 growth higher than WBC-A [1]
COC(=O)CSc1nc(C)nc2sc3c(c12)CCC3 [14C] | No | No | –
Cc1nc(SCCC#N)c2c(-c3cccs3)csc2n1 [15A] | No | No | –
COCCCNC(=O)CSc1nc(C)nc2scc(-c3cccs3)c12 [15B] | Yes | No | –
Cc1nc(NCC(=O)Nc2ccccc2Br)c2c(-c3cccs3)csc2n1 [15C] | No | Yes | Higher IC50 ratio and confirmed
Cc1sc2nc(-c3cccs3)nc(Sc3nnc(C)n3C)c2c1C [16A] | No | No | –
Cc1nc(NCCCN2CCC(O)CC2)c2c(-c3cccs3)csc2n1 [16B] | No | No | –
CCn1c(CCC(N)=O)nnc1Sc1nc(C)nc2scc(-c3cccs3)c12 [16C] | Yes | Yes | Lower IC50 ratio
Cc1sc2nc(CN3CCC(C)CC3)nc(Sc3nnc(C4CC4)n3CCC(N)=O)c2c1C [17A] | No | Yes | Lower IC50 ratio
CC(=O)Nc1ccc(C(=O)CSc2nc(C)nc3scc(-c4cccs4)c23)cc1 [17B] | No | Yes | Higher IC50 ratio, but false-positive
OCCSc1ncnc2sc3c(c12)CCC3 [17C] | No | No | –
Cc1nc(SCC(=O)C(C)(C)C)c2c(-c3cccs3)csc2n1 [18A] | No | Yes | Lower IC50 ratio
Cc1nc(SCC(=O)NC(C)(C#N)C2CC2)c2c(-c3cccs3)csc2n1 (stereo not shown) [18B] | No | Yes | Higher IC50 ratio, but false-positive
COc1ccc(-c2csc3nc(C)nc(SCCO)c23)cc1OC [18C] | No | No | –
Cc1nnc(Sc2ncnc3scc(-c4ccccc4)c23)n1C [19A] | No | No | –
Cc1nc(SCC(=O)Nc2ccccc2C#N)c2c(-c3cccs3)csc2n1 [19B] | No | No | –
Cc1nc(SCC(=O)Nc2c(Cl)cccc2C(F)(F)F)c2c(-c3cccs3)csc2n1 [19C] | No | No | –
COc1ccc(-c2csc3nc(C)nc(Sc4nnc(-c5ccoc5C)n4C)c23)cc1OC [20A] | No | Yes | Lower IC50 ratio
Cc1ccc(-c2csc3ncnc(SCC(=O)N(C)Cc4ccco4)c23)cc1 [20B] | No | Yes | Lower IC50 ratio
Cc1nc(Sc2nnnn2-c2ccccc2C)c2c(-c3cccs3)csc2n1 [20C] | No | Yes | Lower IC50 ratio
COc1ccc(-c2csc3ncnc(Sc4nnc(-c5cccc(C)c5)n4CC(N)=O)c23)cc1 [21A] | No | Yes | Lower IC50 ratio
COc1ccc(OC)c(NC(=O)CSc2nc(C)nc3scc(-c4cccs4)c23)c1 [21B] | No | No | –

SMILES | Rescue of the tps1Δ strain on 2.5 mM glucose at 100 μM (tps1Δ cells) | Selected from primary screen for growth inhibition of A549 cells at 50 μM [1] | Selected for having an IC50 ratio (10 mM glucose: 1 mM glucose) of A549 growth higher than WBC-A [1]
Cc1nc(SCC(C#N)CCC#N)c2c(-c3cccs3)csc2n1 (stereo not shown) [21C] | No | No | –
c1ccc(-c2cc3c(N4CCCC4c4nnc5n4CCCCC5)ncnc3s2)cc1 (stereo not shown) [22A] | No | No | –
Cc1nc(SCC(=O)N(Cc2ccccc2)Cc2ccccc2)c2c(-c3cccs3)csc2n1 [22B] | No | No | –
Cc1nc(SCCO)c2c3c(sc2n1)CCCC3 [22C] | No | No | –
Cc1nc(Sc2nnc(-c3cccnc3)n2C)c2c(-c3cccs3)csc2n1 [23A] | Yes | Yes | Lower IC50 ratio
COCCNC(=O)CN(C)c1nc(C)nc2scc(-c3cccs3)c12 [23B] | No | Yes | Lower IC50 ratio
OCCSc1nc(-c2cccs2)nc2scc(-c3ccccc3)c12 [23C] | No | Yes | Lower IC50 ratio
Cc1nc(Sc2nnc(-c3cccnc3)n2C2CC2)c2c(-c3cccs3)csc2n1 [24A] | No | Yes | Lower IC50 ratio
Cc1nc(NCC(=O)N2CCCC2)c2c(-c3cccs3)csc2n1 [24B] | No | Yes | Lower IC50 ratio
Cc1nc(SCCO)c2c3c(sc2n1)CCC3 [24C] | No | No | –
Cc1nc(Sc2nnc(-c3ccco3)n2C)c2c(-c3cccs3)csc2n1 [25A] | No | No | –
Cc1nc(N2CCN(CCO)CC2)c2c(-c3cccs3)csc2n1 [25B] | No | No | –
Cc1nc(Sc2cccc(C(F)(F)F)c2)c2c(-c3cccs3)csc2n1 [25C] | No | Yes | Lower IC50 ratio
Cc1nc(Sc2nnc(-c3ccncc3)n2C)c2c(-c3cccs3)csc2n1 [26A] | Yes | Yes | Lower IC50 ratio
CC(=O)CSc1nc(C)nc2scc(-c3cccs3)c12 [26B] | No | No | –
Cc1nc(SCCN2CCOC2=O)c2c(-c3cccs3)csc2n1 [26C] | Yes | No | –
c1ccc(Cn2c(CN3CCCC3)nnc2Sc2ncnc3scc(-c4ccccc4)c23)cc1 [27A] | No | Yes | Lower IC50 ratio
Cc1nc(SCC(=O)N(C)Cc2ccco2)c2c(-c3cccs3)csc2n1 [27B] | No | No | –
OCCSc1ncnc2sc3c(c12)CCCC3 [27C] | No | No | –
Cc1sc2nc(CN3CCOCC3)nc(Sc3nnc4n3CCCCC4)c2c1C [28A] | No | No | –

From patent US20240252508A1, “Novel glucose uptake inhibitors for use in the treatment of cancer” (NOVELYEAST BV, priority 2021, published 2024)
